In ChEMBL document CHEMBL1139652, “6H,13H-Pyrazino[1,2-a;4,5-a']diindole analogs: probing the pharmacophore for allosteric ligands of muscarinic M2 receptors” (Bioorg Med Chem Lett, 2006):

Legend:
[1] = biological target: T1, Muscarinic acetylcholine receptor M2 (Homo sapiens, UniProt P08172); experiment: Inhibition of [3H]NMS dissociation from muscarinic M2 receptor in Na,K,Pi buffer
T1 sequence (P08172 whole entry): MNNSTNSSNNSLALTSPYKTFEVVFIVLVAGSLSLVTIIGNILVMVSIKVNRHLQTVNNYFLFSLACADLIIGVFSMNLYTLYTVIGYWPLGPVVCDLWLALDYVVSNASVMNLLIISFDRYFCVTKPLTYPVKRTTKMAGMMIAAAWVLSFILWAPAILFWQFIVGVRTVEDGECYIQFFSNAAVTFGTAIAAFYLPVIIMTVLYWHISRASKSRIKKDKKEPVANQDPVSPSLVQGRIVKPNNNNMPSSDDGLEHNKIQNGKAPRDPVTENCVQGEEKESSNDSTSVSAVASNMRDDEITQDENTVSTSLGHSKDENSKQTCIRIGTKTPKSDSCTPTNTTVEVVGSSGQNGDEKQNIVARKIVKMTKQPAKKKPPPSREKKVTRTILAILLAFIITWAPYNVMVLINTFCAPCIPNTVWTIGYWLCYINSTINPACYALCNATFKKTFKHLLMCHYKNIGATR

[2] = biological target: T1, Muscarinic acetylcholine receptor M2; experiment: Inhibition of [3H]NMS dissociation from muscarinic M2 receptor in hepes buffer
[3] = Selectivity for muscle type nAChR over muscarinic M2 receptor in hepes buffer
[4] = biological target: Acetylcholine receptor (Torpedo californica, UniProt P02710+P02712+P02714+P02718); experiment: Displacement of (+/-)-[3H]epibatidine from muscle type nAChR of Torpedo californica in hepes buffer; format: tissue-based, Tetronarce californica
Sequence of Acetylcholine receptor (P02710 whole entry): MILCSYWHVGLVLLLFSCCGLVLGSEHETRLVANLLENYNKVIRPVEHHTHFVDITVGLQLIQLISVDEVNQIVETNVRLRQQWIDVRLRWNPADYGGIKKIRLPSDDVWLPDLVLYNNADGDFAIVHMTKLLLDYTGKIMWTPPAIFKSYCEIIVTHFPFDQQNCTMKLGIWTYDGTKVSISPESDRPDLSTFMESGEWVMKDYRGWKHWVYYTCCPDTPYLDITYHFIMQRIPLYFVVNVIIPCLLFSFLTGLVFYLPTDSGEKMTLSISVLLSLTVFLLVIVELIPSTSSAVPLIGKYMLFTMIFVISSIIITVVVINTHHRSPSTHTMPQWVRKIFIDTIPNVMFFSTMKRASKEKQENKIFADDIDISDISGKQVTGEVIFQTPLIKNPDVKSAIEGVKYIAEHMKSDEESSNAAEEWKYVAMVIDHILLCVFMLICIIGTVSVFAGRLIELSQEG
Sequence of Acetylcholine receptor (P02712 whole entry): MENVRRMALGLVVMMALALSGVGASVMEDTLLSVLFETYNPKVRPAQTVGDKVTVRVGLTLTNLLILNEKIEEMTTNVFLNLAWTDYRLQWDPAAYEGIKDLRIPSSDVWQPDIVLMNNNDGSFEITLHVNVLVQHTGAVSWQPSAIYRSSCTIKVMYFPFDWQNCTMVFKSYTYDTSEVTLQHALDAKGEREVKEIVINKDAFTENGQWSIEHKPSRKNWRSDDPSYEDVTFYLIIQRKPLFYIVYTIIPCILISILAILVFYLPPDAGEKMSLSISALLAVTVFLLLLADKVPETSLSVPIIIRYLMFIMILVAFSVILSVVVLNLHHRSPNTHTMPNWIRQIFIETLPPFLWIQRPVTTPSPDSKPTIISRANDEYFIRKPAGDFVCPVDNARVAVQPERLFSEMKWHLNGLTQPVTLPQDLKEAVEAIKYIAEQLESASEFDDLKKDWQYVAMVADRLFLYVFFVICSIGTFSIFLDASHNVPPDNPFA
Sequence of Acetylcholine receptor (P02718 whole entry): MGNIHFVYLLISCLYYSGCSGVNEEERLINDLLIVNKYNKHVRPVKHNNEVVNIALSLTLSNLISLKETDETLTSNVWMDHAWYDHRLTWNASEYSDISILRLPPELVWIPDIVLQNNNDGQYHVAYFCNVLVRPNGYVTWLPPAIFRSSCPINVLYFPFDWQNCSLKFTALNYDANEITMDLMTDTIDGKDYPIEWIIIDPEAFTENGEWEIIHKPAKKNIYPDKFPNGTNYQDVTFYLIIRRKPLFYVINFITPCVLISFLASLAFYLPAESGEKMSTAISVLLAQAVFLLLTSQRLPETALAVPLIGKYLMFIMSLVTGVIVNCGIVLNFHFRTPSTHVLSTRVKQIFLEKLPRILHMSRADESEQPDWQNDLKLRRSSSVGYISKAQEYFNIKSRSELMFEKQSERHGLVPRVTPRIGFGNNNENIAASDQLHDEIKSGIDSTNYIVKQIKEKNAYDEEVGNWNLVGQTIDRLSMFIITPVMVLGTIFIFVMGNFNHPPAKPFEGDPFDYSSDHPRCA
Sequence of Acetylcholine receptor (P02714 whole entry): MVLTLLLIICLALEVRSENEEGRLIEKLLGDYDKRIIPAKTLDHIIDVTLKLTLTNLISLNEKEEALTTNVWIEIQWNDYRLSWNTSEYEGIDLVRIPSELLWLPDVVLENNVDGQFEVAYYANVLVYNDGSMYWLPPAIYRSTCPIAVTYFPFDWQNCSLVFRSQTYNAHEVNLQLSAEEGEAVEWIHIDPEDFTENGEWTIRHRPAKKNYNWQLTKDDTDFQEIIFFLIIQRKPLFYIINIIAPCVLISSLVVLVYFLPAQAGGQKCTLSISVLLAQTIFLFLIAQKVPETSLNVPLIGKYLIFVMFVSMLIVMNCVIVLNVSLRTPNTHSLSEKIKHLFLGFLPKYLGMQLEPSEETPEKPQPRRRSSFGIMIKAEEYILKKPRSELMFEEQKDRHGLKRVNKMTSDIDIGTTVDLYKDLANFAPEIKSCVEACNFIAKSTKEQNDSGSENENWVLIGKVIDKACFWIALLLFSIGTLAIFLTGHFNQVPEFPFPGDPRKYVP

Structure (SMILES) | EC50 [1] | EC50 [2] | Selectivity ratio [3] | Ki [4]
C=CC[N+](C)(C)Cc1c2n(c3ccccc13)Cc1c(C[N+](C)(C)CC=C)c3ccccc3n1C2 | 110 nM | 2290 nM | 4.2 | 550 nM
C=CC[N+]12CC[C@@]34c5ccccc5N5[C@@H]6OCC=C7C[N+]8(CC=C)CC[C@]9%10c%11ccccc%11N([C@@H]%11OCC=C(C1)[C@H](C[C@@H]32)[C@@H]%11[C@H]54)[C@H]9[C@H]6[C@H]7C[C@@H]%108 (stereo partly drawn) [DIALLYLCARACURIE V] | 11.2 nM | – | – | 1510 nM
CN(C)Cc1c2n(c3ccccc13)Cc1c(CN(C)C)c3ccccc3n1C2 | 447 nM | 16600 nM | 1.5 | 10700 nM
C[N+](C)(C)Cc1c2n(c3ccccc13)Cc1c(C[N+](C)(C)C)c3ccccc3n1C2 | 229 nM | 11200 nM | 34 | 331 nM
C[N+]12CC[C@@]34c5ccccc5N5[C@@H]6OCC=C7C[N+]8(C)CC[C@]9%10c%11ccccc%11N([C@@H]%11OCC=C(C1)[C@H](C[C@@H]32)[C@@H]%11[C@H]54)[C@H]9[C@H]6[C@H]7C[C@@H]%108 (stereo partly drawn) [DIMETHYLCARACURIE V] | 8.13 nM | – | – | 5250 nM
C1=C2CN3CC[C@]45c6ccccc6N6[C@@H]7OCC=C8CN9CC[C@]%10%11c%12ccccc%12N([C@H](OC1)[C@@H]([C@H]64)[C@H]2C[C@H]35)[C@H]%10[C@H]7[C@H]8C[C@H]9%11 [CARACURINE V] | 437 nM | – | – | > 100000 nM
